Data on four molecules can be found in article PMC7893776, “Selecting an anti-malarial clinical candidate from two potent dihydroisoquinolones” (Malaria Journal, 2021).

The nature of data set [1]: pKa by potentiometric titration. In kind it is physicochemical. On the procedure:
Octanol/pH 7.4 buffer partitioning experiments were conducted using a shake flask method, and pKa was assessed by potentiometric titration. Both methods have been described previously.

Data set [2] has as its system rat plasma proteins. Kind of data set: Plasma protein binding (RED), rat. In kind it is in vitro ADME. Particulars: average of 20, 4, 0.8 µM. Here is the method:
A Rapid Equilibrium Dialysis (RED) Plate (Thermo Scientific, catalog #, PI-90007) was used to determine the percentage of compound binding to plasma proteins. The positive control for this experiment was propranolol-HCl (10 mM in DMSO) and the internal standard was warfarin (2 µM in methanol). 10 mM stocks of compound in DMSO were diluted with DMSO acetonitrile (1:4, v:v) to three different intermediate concentrations: high (2 mM), medium (0.4 mM) and low (0.08 mM). A 10 mM stock of propranolol in DMSO was diluted to 0.4 mM concentration in DMSO:acetonitrile (1:4 v:v). In 16 Eppendorf tubes, the control (10 µL) or each of three compound dilutions (10 µL) were each added to separate aliquots of mouse, rat, dog, and human plasma (990 µL). In the RED plate, potassium phosphate buffer (500 µL, 0.1 M, pH 7.4, 37 °C) was placed in every white well and each plasma/compound mixture was added to each of 3 red wells. […] The compounds and internal standard were detected by selected ion recording (SIR). Using the peak area ratio of compound to warfarin from the SIR spectra, the percentage of free compound [1] and bound compound [2] were calculated using the following equations: (1) % free = (concentration buffer chamber/concentration plasma chamber)*100, and (2) % bound = 100 − % free.

The test system of data set [3] is recombinant human CYP1A1, 1A2, 1B1, 2B6, 2C8, 2C9, 2C19, 2D6, 3A4. Kind of data set: Recombinant human cytochrome P450 (rhCYP) metabolism. In kind it is in vitro ADME. Here is the method: SJ733 was first pre-incubated with Bactosomes™ (Cypex Ltd, final P450 concentration: CYP1A1 25 pmol/mL, CYP1A2 100 pmol/mL,CYP1B1 100 pmol/mL, CYP2B6 100 pmol/mL, CYP2C8 50 pmol/mL, CYP2C9, 25 pmol/mL, CYP2C19 100 pmol/mL, CYP2D6 50 pmol/mL and CYP3A4 25 pmol/mL, 0.1 M phosphate buffer pH 7.4) at 37 °C prior to the addition of NADPH (final concentration 1 mM) to initiate the reaction with a final incubation volume of 50 μL. Incubations were also performed using control Bactosomes™ (no P450 enzymes present) to reveal any non-enzymatic degradation. Control compounds known to be metabolized specifically by each P450 isoform were included individually. Test articles and controls were incubated with each isoform for 0, 5, 15, 30, and 45 min. The reactions were stopped by transferring 20 μL of the reaction mixture to 60 μL methanol at the appropriate timepoints.

Details of data set [4]: method as in PMID 31898492. The conditions noted are these: human whole blood; cited from earlier work.
On the set-up of data set [5]: method as in PMID 31898492. Particulars: octanol/pH 7.4 buffer, averaged from high and low concentration partition samples; cited from earlier work.
Details of data set [6]: method as in earlier work. Particulars: 6 h, cited from earlier work.

Read-outs that look alike come from different tables or passages of the source. Marks after values point to notes of the source that are not given here.

By pKa is commonly meant the negative logarithm of the acid dissociation constant. `N#Cc1cc(NC(=O)C2c3ccccc3C(=O)N(CC(F)(F)F)C2c2cn[nH]c2)ccc1F` (racemic) [(r)-SJ311]: the pKa in data set [1] was 11.1 ± 0.3. In data set [2], the “% bound” value is recorded as 91.0 ± 0.1%.

`N#Cc1cc(NC(=O)[C@H]2c3ccccc3C(=O)N(CC(F)(F)F)[C@@H]2c2cccnc2)ccc1F` (racemic) [SJ733]: the formation of metabolites entry is on record as “no detectable formation of metabolites” in data set [3] (incubation with CYP1A1, 1A2, 1B1, 2B6, 2C9, or 2C19 recombinant enzymes); “Metabolite formation was only observed” in data set [3] (incubations with CYP2C8, 2D6, and 3A4 recombinant enzymes).

On to `N#Cc1cc(NC(=O)C2c3ccccc3C(=O)N(CC(F)(F)F)C2c2cccnc2)ccc1F` (racemic) [(r)-SJ733], for which the “% bound” value in data set [2] is recorded as 90.0 ± 1.7%. In addition, the B/P ratio in data set [4] was 0.72 ± 0.02^b.

Turning to `N#Cc1cc(NC(=O)[C@H]2c3ccccc3C(=O)N(CC(F)(F)F)[C@@H]2c2cccnc2)ccc1F` [(+)-SJ733], the “LogD (7.4) Shake flask” value in data set [5] is recorded as 3.90 ± 0.01^a,b. Further, the Solubility in data set [6] (FaSSIF-V2 pH 6.5, 37°C) is 216^b µM; in data set [6] (FeSSIF-V2 pH 5.8, 37°C), 254^b µM; in data set [6] (Phosphate buffer pH 7.4, 37°C) it was 246^b µM.
